Laboratory results from US8916183B2, “Pesticidal compositions and processes related thereto” (priority 2012, dated 2014).
Like-named read-outs stand apart in the source and are kept apart here.

Experiments:
Assay type in all cases: in vivo
[1] = test system: Corn Earworm (CEW) (Helicoverpa zea); assay: Bioassay on corn earworm (CEW), 128-well diet tray assay; conditions: Helicoverpa zea, read-out: % Mortality CEW 50 μg/cm^2
In short: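 Larvae in a 128-well diet tray were held at 25° C under 14:10 light-dark for five to seven days. Percent mortality was scored per well and averaged over eight wells, then reported on a rating scale.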

[2] = test system: Green Peach Aphid (GPA) (Myzus persicae); assay: Bioassay on green peach aphid (GPA), foliar spray on cabbage seedlings; conditions: read-out: % Mortality GPA 200 ppm
In short: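 Cabbage seedlings (2-3 true leaves), each infested a day earlier with 20-50 wingless adult and nymph GPA, were sprayed on both leaf sides to runoff, four pots per treatment. Corrected % control was calculated against solvent-check plants.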

[3] = test system: Beet Armyworm (BAW) (Spodoptera exigua); assay: Bioassay on beet armyworm (BAW), 128-well diet tray assay; conditions: Spodoptera exigua, read-out: % Mortality BAW 50 μg/cm^2

SMILES | mortality at 50 µg/cm2 ([1]; corn earworm, 50 μg/cm^2) [%] | mortality at 200 ppm ([2]; green peach aphid, 200 ppm) [%] | mortality at 50 µg/cm2 ([3]; beet armyworm, 50 μg/cm^2) [%] | mortality at 50 µg/cm2 [1] [%] | mortality at 200 ppm [2] [%] | mortality at 50 µg/cm2 [3] [%]
Cc1cccc(C)c1/N=C(/N/N=C/c1ccc(-c2ncn(-c3ccc(OC(F)(F)F)cc3)n2)cc1)SCc1ccccc1 [Compound 10C] | 50 to 100 | 0 | 50 to 100 |  |  | 
CC(C)c1ccccc1N1/C(=N/N=C/c2ccc(-c3ncn(-c4ccc(OC(F)(F)F)cc4)n3)cc2)SC(C)C1(C)O (stereo not drawn) [Compound 257C] | 50 to 100 | 0 | 50 to 100 |  |  | 
Cc1cccc(C)c1/N=C(/N/N=C/c1ccc(-c2ncn(-c3ccc(OC(F)(F)F)cc3)n2)cc1)SCC(=O)NCCCNC(=O)OC(C)(C)C [Compound 58C] | 50 to 100 | 0 to 80 | 50 to 100 |  |  | 
COc1cc(C)c(/N=C(/N/N=C/c2ccc(-c3ncn(-c4ccc(OC(F)(F)F)cc4)n3)cc2)SCOC(=O)C2CCCO2)c(C)c1 (stereo not drawn) [Compound 44C] | 50 to 100 | 0 | 50 to 100 |  |  | 
FC(F)(F)Oc1ccc(-n2cnc(-c3ccc(/C=N/N=C4\SCCCN4c4ccccc4C4CC4)cc3)n2)cc1 [Compound 186C] | 50 to 100 | 0 to 80 | 50 to 100 |  |  | 
FC(F)(F)Oc1ccc(-n2cnc(-c3ccc(/C=N/N=C4\SCCN4c4c(Cl)cccc4C(F)(F)F)cc3)n2)cc1 [Compound 149C] | 50 to 100 | 0 | 50 to 100 |  |  | 
COc1cc(C)c(/N=C(/N/N=C/c2ccc(-c3ncn(-c4ccc(OC(F)(F)F)cc4)n3)cc2)SCOC(=O)C2CCCC2)c(C)c1 [Compound 43C] | 50 to 100 | 0 to 80 | 50 to 100 |  |  | 
CCc1cccc(C)c1N1/C(=N/N=C/c2ccc(-c3ncn(-c4ccc(OC(F)(F)F)cc4)n3)cc2)SCC1C (stereo not drawn) [Compound 156C] | 50 to 100 | 0 to 80 | 50 to 100 |  |  | 
CC(C)c1ccccc1N1/C(=N/N=C/c2ccc(-c3ncn(-c4ccc(OC(F)(F)F)cc4)n3)cc2)SCC1(C)O (stereo not drawn) [Compound 242C] | 50 to 100 | 0 to 80 | 50 to 100 |  |  | 
CC(C)Cc1ccccc1N1CCCS/C1=N\N=C\c1ccc(-c2ncn(-c3ccc(OC(F)(F)F)cc3)n2)cc1 [Compound 193C] | 50 to 100 | 0 to 80 | 50 to 100 |  |  | 
Cc1cccc(Cl)c1N1C(=O)CS/C1=N\N=C\c1ccc(-c2ncn(-c3ccc(OC(F)(F)F)cc3)n2)cc1 [Compound 93C] | 50 to 100 | 0 | 50 to 100 |  |  | 
Cc1cccc(C)c1N1CCS/C1=N\N=C\c1ccc(-c2ncn(-c3ccc(OC(F)(F)F)cc3)n2)cc1 [Compound 142C] | 50 to 100 | 0 | 50 to 100 |  |  | 
CCC(C)c1ccccc1N1CCCS/C1=N\N=C\c1ccc(-c2ncn(-c3ccc(OC(F)(F)F)cc3)n2)cc1 (stereo not drawn) [Compound 183C] | 50 to 100 | 0 | 50 to 100 |  |  | 
Cc1cccc(C)c1/N=C(/N/N=C/c1ccc(-c2ncn(-c3ccc(OC(F)(F)F)cc3)n2)cc1)SCc1ccc(S(=O)(=O)Nc2ccc(F)cc2)cc1 [Compound 18C] | 50 to 100 | 0 to 80 | 50 to 100 |  |  | 
CC(C)=Cc1ccccc1N1C(=O)CS/C1=N\N=C\c1ccc(-c2ncn(-c3ccc(OC(F)(F)F)cc3)n2)cc1 [Compound 121C] | 50 to 100 | 0 to 80 | 50 to 100 |  |  | 
CCc1ccccc1N1CCCS/C1=N\N=C\c1ccc(-c2ncn(-c3ccc(OC(F)(F)F)cc3)n2)cc1 [Compound 185C] | 50 to 100 | 0 | 50 to 100 |  |  | 

SMILES | mortality at 50 µg/cm2 ([1]; corn earworm, 50 μg/cm^2) [%] | mortality at 200 ppm ([2]; green peach aphid, 200 ppm) [%] | mortality at 50 µg/cm2 ([3]; beet armyworm, 50 μg/cm^2) [%] | mortality at 50 µg/cm2 [1] [%] | mortality at 200 ppm [2] [%] | mortality at 50 µg/cm2 [3] [%]
CCCS/C(=N\c1c(Cl)cccc1Cl)N/N=C/c1ccc(-c2ncn(-c3ccc(OC(F)(F)F)cc3)n2)cc1 [Compound 3C] | 50 to 100 | 0 | 50 to 100 |  |  | 
CC(C)c1ccccc1N1CCS/C1=N\N=C\c1ccc(-c2ncn(-c3ccc(OC(F)(F)F)cc3)n2)cc1 [Compound 132C] | 50 to 100 | 0 to 80 | 50 to 100 |  |  | 
Cc1cccc(C)c1/N=C(/N/N=C/c1ccc(-c2ncn(-c3ccc(OC(F)(F)F)cc3)n2)cc1)SCC#C[Si](C)(C)C [Compound 9C] |  |  |  | 50 to 100 | 0 | 50 to 100
CCc1cccc(C)c1N1CCS/C1=N\N=C\c1ccc(-c2ncn(-c3ccc(OC(F)(F)F)cc3)n2)cc1 [Compound 136C] | 50 to 100 | 0 | 50 to 100 |  |  | 
CC(=O)OCS/C(=N\c1c(C)cccc1C)N/N=C/c1ccc(-c2ncn(-c3ccc(OC(F)(F)F)cc3)n2)cc1 [Compound 31C] | 50 to 100 | 0 to 80 | 50 to 100 |  |  | 
CC(C)Cc1ccccc1N1C(=O)CS/C1=N\N=C\c1ccc(-c2ncn(-c3ccc(OC(F)(F)F)cc3)n2)cc1 [Compound 119C] | 50 to 100 | 0 | 50 to 100 |  |  | 
COc1cc(C)c(/N=C(/N/N=C/c2ccc(-c3ncn(-c4ccc(OC(F)(F)F)cc4)n3)cc2)SCOC(=O)C(C)OCC(F)(F)F)c(C)c1 (stereo not drawn) [Compound 38C] | 50 to 100 | 0 | 50 to 100 |  |  | 
COc1ccc(C(C)/N=C(/N/N=C/c2ccc(-c3ncn(-c4ccc(OC(F)(F)F)cc4)n3)cc2)SCC(=O)O)cc1 (stereo not drawn) [Compound 52C] | 0 | 0 to 80 | 0 to 50 |  |  | 
Fc1cccc(Cl)c1N1CCCS/C1=N\N=C\c1ccc(-c2ncn(-c3ccc(OC(F)(F)F)cc3)n2)cc1 [Compound 188C] | 50 to 100 | 0 to 80 | 50 to 100 |  |  | 
Cc1cccc(C)c1N1CCCS/C1=N\N=C\c1ccc(-c2ncn(-c3ccc(OC(F)(F)F)cc3)n2)cc1 [Compound 182C] | 50 to 100 | 0 to 80 | 50 to 100 |  |  | 
Cc1cc(C)c(N2CCS/C2=N\N=C\c2ccc(-c3ncn(-c4ccc(OC(F)(F)F)cc4)n3)cc2)c(C)c1 [Compound 139C] | 50 to 100 | 0 to 80 | 50 to 100 |  |  | 
Cc1cccc(C)c1/N=C(/N/N=C/c1ccc(-c2ncn(-c3ccc(OC(F)(F)F)cc3)n2)cc1)SCC(=O)NCC(NC(=O)OC(C)(C)C)C(=O)O (stereo not drawn) [Compound 59C] | 50 to 100 | 0 to 80 | 50 to 100 |  |  | 
O=C1CS/C(=N\N=C\c2ccc(-c3ncn(-c4ccc(OC(F)(F)F)cc4)n3)cc2)N1c1c(Cl)cccc1Cl [Compound 70C] | 50 to 100 | 0 | 50 to 100 |  |  | 
Cc1ccccc1-n1c(C)cs/c1=N\N=C\c1ccc(-c2ncn(-c3ccc(OC(F)(F)F)cc3)n2)cc1 [Compound 173C] | 50 to 100 | 0 | 50 to 100 |  |  | 
CC1CS/C(=N\N=C\c2ccc(-c3ncn(-c4ccc(OC(F)(F)F)cc4)n3)cc2)N1c1c(Cl)cccc1Cl (stereo not drawn) [Compound 157C] | 50 to 100 | 0 to 80 | 50 to 100 |  |  | 
Cc1ccccc1N1CCS/C1=N\N=C\c1ccc(-c2ncn(-c3ccc(OC(F)(F)F)cc3)n2)cc1 [Compound 141C] | 50 to 100 | 0 | 50 to 100 |  |  | 
